Assay results: patent publication US20250283037A1, “METHODS FOR STIMULATING AND TRANSDUCING T CELLS” (Juno Therapeutics GmbH, priority 2021, published 2025)

Experiments:
[1] = molecular target: T1, mutein streptavidin designated Strep-tactin® (e.g. containing the sequence set forth in SEQ ID NO: 4) (Streptomyces avidinii, UniProt P22629, E68V/S69T/V71R); settings: general statement in the description, no experiment described; read-out: binding affinity KD for Strep-tactin®; cited from earlier work
T1 construct: N-terminal methionine in place of Ala13 (N)
T1 sequence (P22629 other isoform, or with tags, fused parts or gaps E68V/S69T/V71R): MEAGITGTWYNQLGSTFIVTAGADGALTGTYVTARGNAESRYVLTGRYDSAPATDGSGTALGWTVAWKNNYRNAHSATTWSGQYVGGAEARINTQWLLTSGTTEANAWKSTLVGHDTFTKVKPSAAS

[2] = test system: mTOR; assay: Intracellular S6 phosphorylation in engineered T cells; assay type: cell-based, human; settings: 1 μM (also printed 1 mM) during production; live CD8+ T cells
Procedure: CD4+ and CD8+ T cells were isolated by immunoaffinity-based enrichment from leukapheresis samples from human donor subjects. […] The T cells cultured with our without Compound 63 were incubated overnight (approximately 24 hr) at 37° C., and were then transduced in serum-free culture media with our without Compound 63 ([…]) with a lentiviral vector encoding an anti-CD19 CAR. […] Following transduction, the cells were incubated in serum free media without recombinant cytokines (basal media) and with or without Compound 63 (1 mM) and allowed to incubate at about 37.0° C. in an incubator for up to 96 hours after initiation of the stimulation with the anti-CD3/anti-CD28 oligomeric stimulatory reagent (until day 5 of the process). […] Following incubation CD4+ and CD8+ T cells from each donor were harvested, formulated, and cryofrozen. The cryofrozen engineered CD4+ and CD8+ T cells were thawed, and T cells were assessed for intracellular S6 phosphorylation, a ribosomal protein and marker of mTOR inhibition, and co-stained for surface expression of CD4 or CD8 and for CCR7 and CD45RA as markers of memory subsets. pS6 expression in live CD8+ T cells by memory subsets was shown by the expression of CCR7 and CD45RA as shown in FIG. 16A.

[3] = test system: CD4+ and CD8+ T cells; assay: Viability and live cell count of engineered T cell composition; assay type: cell-based, human; settings: with vs without compound during production
[4] = test system: CAR-T cells; assay: Intracellular caspase expression in thawed CAR-T cells; assay type: cell-based, human; settings: vs cells not incubated with compound
Procedure: (§1) CD4+ and CD8+ T cells were isolated by immunoaffinity-based enrichment from leukapheresis samples from human donor subjects. At day 1, isolated CD4+ and CD8+ T cells were mixed 1:1 and stimulated with an anti-CD3/anti-CD28 oligomeric stimulatory reagent generated as described in Example 1 in serum-free media supplemented with recombinant IL-2 (100 IU/mL), recombinant IL-7 (600 IU/mL), and recombinant IL-15 (100 IU/mL) with or without 1 μM of 2-(3-hydroxyphenyl)-9-(2-isopropylphenyl)-8-oxo-8,9-dihydro-7H-purine-6-carboxamide (Compound 63). The T cells cultured with our without Compound 63 were incubated overnight (approximately 24 hr) at 37° C., and were then transduced in serum-free culture media with our without Compound 63 ([…]) with a lentiviral vector encoding an anti-CD19 CAR. The CAR contained an scFv antigen-binding domain specific for CD19 (derived from FMC63), a CD28 transmembrane region, a 4-1BB costimulatory signaling region, and a CD3-zeta derived intracellular signaling domain. Following transduction, the cells were incubated in serum free media without recombinant cytokines (basal media) and with or without Compound 63 (1 mM) and allowed to incubate at about 37.0° C. in an incubator for up to 96 hours after initiation of the stimulation with the anti-CD3/anti-CD28 oligomeric stimulatory reagent (until day 5 of the process). […]

[5] = test system: CD8+ T cells and CD4+ T cells; assay: CD27/CCR7 phenotypic subset profile by flow cytometry; assay type: cell-based, human
Procedure: as §1

[6] = test system: CD4+ and CD8+ T cells; assay: Intracellular cytokines after PMA/Ionomycin and Golgi inhibitor; assay type: cell-based, human; settings: PMA/Ionomycin stimulation; engineered CD8+ and CD4+ T cells
Procedure: as §1

[7] = test system: anti-CD19 CAR T cells; assay: Long-term stimulation with anti-idiotype antibody beads, expansion and survival; assay type: cell-based, human; settings: 12 days, anti-ID antibody beads
Procedure: as §1, with “domain.” for “domain. Following transduction, the cells were incubated in serum free media without recombinant cytokines (basal media) and with or without Compound 63 (1 mM) and allowed to incubate at about 37.0° C. in an incubator for up to 96 hours after initiation of the stimulation with the anti-CD3/anti-CD28 oligomeric stimulatory reagent (until day 5 of the process).”
To further assess the functional activity of the cells, the generated T cell compositions were stimulated long-term over 12 days with beads conjugated with an anti-idiotype (ID) antibody against the anti-CD19 CAR, and expansion and survival of the cells were monitored (FIG. 17F, left panel) and total expansion metric calculated by area under the growth curve (FIG. 17F, right panel, AUC).

Row | Compound | Kd [1] | pS6 mean fluorescence intensity of memory T cell subsets (Temra, Tem, Tcm) [2] | percentage of viable cells over time [3] | total number of viable cells over time [3] | intracellular caspase expression [4] | phenotypic subset profile by CD27 and/or CCR7 expression [5] | level of intracellular cytokines IL2, IFNg, or TNF [6] | function (expansion, AUC) following long-term CAR-specific stimulation [7]
1 | WSHPQFEK [Strep-tag® II] | ~1000 nM |  |  |  |  |  |  | 
2 | CC(C)c1ccccc1-n1c(=O)[nH]c2c(C(N)=O)nc(-c3cccc(O)c3)nc21 [Compound 63, 2-(3-hydroxyphenyl)-9-(2-isopropylphenyl)-8-oxo-8,9-dihydro-7H-purine-6-carboxamide] |  | decreased | no significant effect | no significant effect | less | did not substantially alter | substantially improved | improved function
